Experimental data as given in patent US20170305894A1, “PPAR AGONISTS, COMPOUNDS, PHARMACEUTICAL COMPOSITIONS, AND METHODS OF USE THEREOF” (priority 2014, published 2017).

How the values were obtained:
FGF1a promoter = test: Luciferase reporter assay of FGF1a promoter co-transfected with PPARδ; format: cell-based; conditions: with or without the ligand
Text: FIGS. 3A-3G illustrate that PPARδ regulates FGF1a to promote micro-vascularization. *P<0.05; **P<0.01. All error bars are SEM. FIG. 3A provides immunofluorescence staining for CD31 on transverse sections of uninjured TA from WT and TG animals. FIG. 3B provides quantification of CD31 positive capillary number (n=4). FIG. 3C illustrates the FGF1a mRNA level in TA of WT and TG by QPCR (n=5). FIG. 3D provides a Western blot for FGF1. FIG. 3E provides immunofluorescence staining for CD31 positive capillaries on transverse sections of TA, 5 days after the injury (n=3). FIG. 3F provides quantification for CD31 positive capillaries on transverse sections of TA, 5 days after the injury (n=3). FIG. 3G provides luciferase reporter assays of FGF1a promoter co-transfected with PPARδ with or without the ligand, GW501516.
Increased vasculature is one of the hallmarks of oxidative myofibers, which facilitates introduction of immune cells and also supports increased number of satellite cells. TG animals show increased expression of FGF1 in TA muscle (FIG. 3D). Upon injury, TG animals maintain high expression of FGF1 expression (FIG. 3D). […] Furthermore, after the injury, TG animals show increased expression of CD31, which is indicative of increased vascularity (FIGS. 3E-F). […] Therefore, increased vascularity may contribute to the accelerated regenerative process observed in VP16-PPARδ animals.

[1] = tested on: C57BL6J mice, thermal injury to the TA; test: Acute pharmacological activation of PPARδ in freeze burn (thermal) injury of the TA muscle; format: in vivo
Experimental: TA muscles were injured according to previously published methods with a few modifications (Brack et al., Science 317(5839):807-810 (2007)). A stainless steel 1 g weight (Mettler-Toledo) equilibrated to the temperature of dry ice was placed directly on the exposed TA for 10 seconds. Following the thermal injury, incision was closed using VetBond (3M). All injury procedures were performed on the left leg, and the right leg was used as control.
(Hamer et al., J Anat 200(Pt 1):69-79 (2002)). Sterile 1% w/v Evans Blue dye in PBS was intraperitoneally injected at 1% volume relative to the body mass of an animal. Seven hours after the injection, injured TA muscles were harvested and snap-frozen by isopentane quenching in liquid nitrogen. Frozen sections were cut in 10 μm thickness, fixed in ice-cold acetone, dipped in xylene and mounted with DPX. Proportion of the stained area over the total area was measured using ImageJ software.
50 mg/kg body weight of BrdU (Sigma) was injected intraperitoneally as solution of 10 mg/mL BrdU in saline. TA muscles were harvested at 7 days after injury and processed for paraffin sections as described above. BrdU incorporation was visualized using the BrdU Labeling and Detection Kit I (Roche) and BrdU+ nuclei were counted and represented as a proportion of total nuclei in a field.
Whole or partial tissues were homogenized by Polytron probe homogenizer in Trizol reagent (Invitrogen). Total RNA was extracted from the homogenates according to the manufacturer's protocol. One microgram of DNase-treated total RNA was reverse transcribed using Superscript II Reverse Transcriptase (Invitrogen) according to the manufacturer's instructions. cDNAs were diluted 1/40 with ddH2O and used as templates in RT-QPCR reactions with SYBRGreenER qPCR SuperMix detection system (Invitrogen). Samples were prepared in technical triplicates and relative mRNA levels were calculated by using the standard curve methodology and normalized against GAPDH mRNA levels in the same samples.

SMILES: Cc1cc(SCc2sc(-c3ccc(C(F)(F)F)cc3)nc2C)ccc1OCC(=O)O [GW501516]
- FGF1a promoter luciferase reporter activity (FGF1a promoter): induction of FGF1a
- initial inflammatory responses (inflammatory marker genes) ([1]; 12 hours after the injury, with or without ligand): similarly generated
- expressions of inflammatory marker genes by QPCR ([1]; 3 days after the injury): significantly reduced
- reduction in the proportion of stained area ([1]; 5 days after the injury, versus vehicle, orally 5 mg/kg): 34.7%
- expression of PPARδ target genes (PDK4, CPT1b, and catalase) in TA by QPCR ([1]; 9 day treatment, orally 5 mg/kg): Up-regulation
- myoblast proliferation (BrdU positive nuclei) ([1]; BrdU injection at 48 hours after the injury): promoted myoblast proliferation
- increase in the number of quiescent satellite cells ([1]; after 9 days or 4 weeks of ligand treatment): not observed
- Evans Blue dye uptake, proportion of muscle cross sectional area (CSA) stained ([1]; orally 5 mg/kg for 4 days prior to and 5 days after injury, 5 days after the injury, vehicle 7.6%): 4.9%
